For the series the following is noted: the molecule shown is the open-chain precursor; rcm bond; 13-membered ring; Grubbs I (5 mol%); DCM; 1.75 mM; 25.0 °C.

`C=CCCCOc1cc(Br)ccc1[C@@H]1C[C@@H](O)CCN1C(=O)OCc1ccccc1` gave a ring closure, isolated yield of 76.4%.

(Values after US20240182503A1, “MACROCYCLE COMPLEMENT FACTOR B INHIBITORS” (priority 2021, published 2024).)
